In PubChem BioAssay AID2740 (NMMLSC, 2010):
Values joined by “and” are separate entries in the source; they are usually repeats but may differ in a detail not shown here. Identical values can stand only once. Active and inactive are the calls of the source.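 How the source made its calls: active means compounds whose fitted half-maximal concentration for changing the GFP signal is at or below a set limit; inactive means the rest.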

Experiments:
[1] = test system: S. cerevisiae RPL19A-GFP strain, flow cytometry fluorescence, 3 h; experiment: TOR pathway RPL19A-GFP modulators, concentration series – cell-based, S. cerevisiae, flow cytometry, MLPCN hits, dose response (AID 2740);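 on GFP fluorescence, lower = active: background is signal of the same compound in parental non-GFP s288c yeast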
[2] = as above; details: S. cerevisiae RPL19A-GFP strain, flow cytometry fluorescence, 3 h; at 33 µM (top of the series)

SMILES | EC50 [1] | GFP fluorescence, lower = active (kMESF (background-subtracted)) [2]
CC(C)(C)c1ccc(NC(=O)COC(=O)c2ccc([N+](=O)[O-])s2)cc1 | 9.71 µM | 
O=C(C#Cc1ccccc1)c1cccc([N+](=O)[O-])c1 | 7.47 µM | 
COc1cc(/C=C/[N+](=O)[O-])ccc1O | 32.1 µM | 
Cn1ncc2c(O/N=C(\N)c3ccc(C(C)(C)C)cc3)ncnc21 | 13 µM | 
O=[N+]([O-])c1ccc(S(=O)(=O)c2cccc(C(F)(F)F)c2)nc1 | 11.8 µM | 
CCn1c(=O)c(C(=O)Nc2nc3ccccc3[nH]2)c(O)c2ccccc21 | 3.3 µM | 
C#CCOCCOCCOCCNc1nc(N2CCN(C(=O)CCCCCCCCCCNC(=O)[C@@H](CCC(=O)O)n3cc(CCCCCN)nn3)CC2)nc(N2CCN(C(=O)CCCCCCCCCCNC(=O)[C@H](CCCCN)n3cc(C[C@@H](C)CC)nn3)CC2)n1 | 11 µM | 
Nc1ccc(Br)c2c1C(=O)c1ccccc1C2=O | 3.16 µM | 
Cc1ccc(S(=O)(=O)ON2C(=O)c3ccccc3C2=O)c(C)c1 | 14 µM | 
Cc1ccc(C(=O)O)cc1N=Cc1cc(Br)cc(Br)c1O | 11.8 µM | 
Cc1ccc(/C=C2/C(=O)ON=C2c2ccccc2)o1 | 11.9 µM | 
O=C(Nc1ccc(Cl)cc1)ON=C1CCCC1 | 10.8 µM | 
O=C(Nc1nc(-c2ccccn2)cs1)c1cc2ccccc2o1 | 11.7 µM | 
N/C(Cc1ccc(Cl)cc1)=N\OC(=O)c1ccccc1 | 8.02 µM | 
O=C1C2C3C=CC(CO)(O3)C2C(=O)N1c1ccc(-c2ccccc2)cc1 (stereo not given) | 10.2 µM | 
O=C1C=CC(=O)N1c1cccc(-c2ccccc2)c1 | 2.7 µM | 
CSc1nnc2c3cc(F)ccc3n(C)c2n1 | 1.19 µM | 
COc1ccc2c(c1)c1nnc(SC)nc1n2C | 0.681 µM | 
C#CCOCCOCCOCCNc1nc(N2CCN(C(=O)CCCCCCCCCCNC(=O)[C@H](CCCCN)n3cc(CCO)nn3)CC2)nc(N2CCN(C(=O)CCCCCCCCCCNC(=O)[C@H](CCCN=C(N)N)n3cc(C[C@@H](C)CC)nn3)CC2)n1 | 10 µM | 
O=C1C=C(c2ccccc2)C(=O)N1Nc1ccccc1 | 3.91 µM | 
CC(=O)SC(C[N+](=O)[O-])c1cn(C(C)=O)c2ccccc12 (stereo not given) | 12.4 µM | 
O=[N+]([O-])c1ccc(O)c(/C=N/Nc2ccccn2)c1 | 16.6 µM | 
Cc1ccc(/C=C2\C(=O)NC(=S)N(c3ccccc3F)C2=O)s1 | 1.36 µM | 
COc1ccc(N2C(=O)/C(=C/c3cccs3)C(=O)NC2=S)cc1 | 7.77 µM | 
Cc1ccc(N/N=C(\C#N)C(N)=S)c(C)c1 | 5 µM | 
CNC(CC(=O)c1ccc([N+](=O)[O-])cc1)C(Cl)(Cl)Cl (stereo not given) | 6.58 µM | 
CNc1nc(N)c([N+](=O)[O-])c(Nc2cccc(F)c2)n1 | 7.46 µM | 

SMILES | EC50 [1] | GFP fluorescence, lower = active (kMESF (background-subtracted)) [2]
CC(C)(C)C(=O)NC(=S)NNC(=O)c1sc2ccccc2c1Cl | 12.3 µM | 
O=[N+]([O-])c1cc(Cl)cc(/C=N\Nc2ccccn2)c1O | 8.02 µM | 
O=C(Nc1ccccc1)c1nnsc1S(=O)(=O)c1ccc(Cl)cc1 | 2.5 µM | 
C#CCOCCOCCOCCNc1nc(N2CCN(C(=O)CCCCCCCCCCNC(=O)[C@H](CCCCN)n3cc(C)nn3)CC2)nc(N2CCN(C(=O)CCCCCCCCCCNC(=O)[C@H](CCCN=C(N)N)n3cc(C[C@@H](C)CC)nn3)CC2)n1 | 10.7 µM | 
O=C1NC(=O)N(Cc2ccco2)C(=O)/C1=C/c1ccc(-c2cccc([N+](=O)[O-])c2)o1 | 11.2 µM | 
CCCCS(=O)(=O)/C=C\C=C/S(=O)(=O)CCCC | 12.5 µM | 
CC1=NNC(=O)/C1=C\c1cn(-c2ccccc2)nc1-c1ccccc1 | 11.4 µM | 
O=C(CSC1=NS(=O)(=O)c2ccccc21)Nc1ccccc1 | 5.5 µM | 
CC(Oc1ccc(Cl)cc1)C(=O)NNC(=S)NC(=O)c1ccco1 (stereo not given) | 11 µM | 
Cn1ncc(S(=O)(=O)Cc2ccccc2)c(Cl)c1=O | 14.9 µM | 
O=C1NC(=O)C(=Cc2ccc(-c3ccc(Cl)cc3)o2)C(=O)N1 | 6.81 µM | 
CCOc1ccc(N2C(=O)/C(=C\c3cccs3)C(=O)NC2=S)cc1 | 5.66 µM | 
CCOC(=O)c1c(C)oc2c1c(C(c1ccncc1)N1CCOCC1)c(O)c1ccccc12 (stereo not given) | 11.8 µM | 
C[C@@H]1C[C@@H]([C@H](O)CC2CC(=O)NC(=O)C2)C(=O)[C@@H](C)C1 | 0.644 µM | 
Cc1ccc(/C=C/C(=O)c2ccccc(=O)c2O)c(C)c1 | 11.3 µM | 
CCc1ccc2c(c1)/C(=C/C(=O)c1cccs1)C(=O)N2 | 4.42 µM | 
Cc1ccc(NC(=O)c2cc(N3C(=O)C=CC3=O)ccc2Cl)cc1C | 7.49 µM | 
CC(Oc1ccc(Br)cc1)C(=O)Nc1nc(-c2ccccn2)cs1 (stereo not given) | 20.5 µM | 
Cc1nn2c(-c3ccncc3)nnc2c2ccccc12 | 3.29 µM | 
Cc1cccc(C)c1NC(=O)C(Cl)C(=O)c1ccccc1 (stereo not given) | 1.9 µM | 
CCOC(=O)/C(=C\c1cn(C)c2ccccc12)[N+](=O)[O-] | 4.95 µM | 
CCCCCCCCn1sccc1=O | 11.9 µM | 
O=C1Oc2ccccc2C(=O)/C1=C/c1ccccc1O | 11 µM | 
Cc1ccc2nc(Cl)c3nnnn3c2c1 | 5.33 µM | 
ClC(Cl)(c1nnnn1-c1ccccc1)c1nnnn1-c1ccccc1 | 4.62 µM | 
CC1(C)C[C@H]2C=C(C=O)[C@]3(C=O)C[C@]3(C)[C@H]2C1 | 3.62 µM | 
C/C(=N\NC(=O)c1cccc(Br)c1)c1ccccn1 | 20.8 µM | 

SMILES | EC50 [1] | GFP fluorescence, lower = active (kMESF (background-subtracted)) [2]
O=C(/C=C/c1cccc(Cl)c1)c1nc2ccccc2[nH]1 | 4.06 µM | 
Cc1ccc(NN2C(=O)C=C(c3ccc(Cl)cc3)C2=O)cc1 | 1.28 µM | 
O=C(/C=C/c1ccccn1)c1cc(Br)ccc1O | 8.96 µM | 
CCOC(=O)COc1ccc2ccccc2c1/C=C/[N+](=O)[O-] | 5.36 µM | 
CC1=NNC(=O)/C1=C\c1cn(-c2ccccc2)nc1-c1cccs1 | 3.14 µM | 
CCOC(=O)c1cc(-c2ccc(/C=C3/C(=O)NC(=O)C(C#N)=C3C)o2)ccc1Cl | 3.35 µM | 
O=C(/C=C/c1cccc([N+](=O)[O-])c1)c1ccc([N+](=O)[O-])o1 | 3.5 µM | 
O=C1c2sc3nc4ccccc4n3c2C(=O)N1c1ccccc1Cl | 19 µM | 
CC(=O)Nc1ncnc2c1c(-c1ccc(Cl)cc1)nn2C(C)(C)C | 6.07 µM | 
O=C1C=CC(=O)N1c1ccc(O)cc1 | 12.6 µM | 
C#CCOCCOCCOCCNc1nc(N2CCN(C(=O)CCCCCCCCCCNC(=O)[C@H](CCCCN)n3cc(CCO)nn3)CC2)nc(N2CCN(C(=O)CCCCCCCCCCNC(=O)[C@H](CCCCN)n3cc(C[C@@H](C)CC)nn3)CC2)n1 | 10.1 µM | 
Cc1ccc(S(=O)(=O)c2ccc([N+](=O)[O-])cn2)cc1 | 12.9 µM | 
O=C(/C=C/c1ccccn1)c1ccc(Br)cc1O | 26.8 µM | 
CCN1/C(=C/C(C)=C/c2sc3ccccc3[n+]2CC)Sc2ccccc21 | 11.3 µM | 
CC(C)(C)n1nc(-c2ccc(F)cc2)c2c(N)ncnc21 | 0.98 µM | 
COc1ccc(N/N=C(\C#N)C(N)=O)cc1 | 2.96 µM | 
O=C(OCC(=O)N1CCN(C(=O)c2ccco2)CC1)c1cc(-c2cccc(Br)c2)nc2ccccc12 | 3.18 µM | 
COc1ccc([N+](=O)[O-])c(S(=O)(=O)c2ccc(Cl)cc2)n1 | 13.1 µM | 
O=[N+]([O-])c1cc(Cl)c2cccnc2c1O | 13 µM | 
O=C(C#Cc1ccccc1)c1ccco1 | 25.6 µM | 
CCOC(=O)C(C(=O)OCC)C(C(=O)OCC)N1CCOCC1 (stereo not given) | 14.2 µM | 
CCOc1ccc(N/N=C(/C#N)C(N)=O)cc1 | 4.55 µM | 
COc1cccc2sc(Nc3nc(-c4ccccn4)cs3)nc12 | 3.82 µM | 
O=[N+]([O-])c1cc(S(=O)(=O)C(F)(F)F)ccc1Sc1nc2ccccc2s1 | 14.4 µM | 
COc1cccc2cc(-c3nc4ccccc4o3)c(=O)oc12 | 1.11 µM | 
CCOC(=O)c1c(C)oc2c1c(C(c1cccnc1)N1CCOCC1)c(O)c1ccccc12 (stereo not given) | 13.7 µM | 
O=C1NC(=O)N(Cc2ccc(F)cc2)C(=O)/C1=C/c1cccs1 | 4.65 µM | 

SMILES | EC50 [1] | GFP fluorescence, lower = active (kMESF (background-subtracted)) [2]
CN1CCN(C(=O)c2cc(COc3c(F)cccc3F)on2)CC1c1ccccc1 (stereo not given) | 8.03 µM | 
CC(C)(C)C(=O)C(Cl)C(=O)Nc1ccccc1 (stereo not given) | 11.2 µM | 
CCc1nc2ccccc2c(=O)n1NC(=O)c1c(O)c2ccccc2n(CC)c1=O | 7.44 µM | 
C[C@H]1C[C@@H](C)C(=O)[C@@H]([C@H](O)CC2CC(=O)NC(=O)C2)C1 | 0.57 µM | 
O=C1C=CC(=O)N1c1ccc(Sc2ccc([N+](=O)[O-])cc2)cc1 | 10.2 µM | 
COc1ccc2c(c1)S/C(=C\C(=O)c1ccncc1)N2C | 3.97 µM | 
O=C1C=CC(=O)N1c1ccc(N2CCCCC2)cc1 | 5.05 µM | 
O=C(Nc1ccc(Cl)cc1Cl)c1cccc(N2C(=O)C=CC2=O)c1 | 9.64 µM | 
O=c1cc(CSc2ccc(Cl)cc2)nc(-c2ccccn2)[nH]1 | 12.9 µM | 
O=C(OCC(=O)N1CCN(C(=O)c2ccco2)CC1)c1cc(-c2ccccc2)nc2ccccc12 | 6.98 µM and 3.89 µM | 
N/C(Cc1ccc(Cl)cc1Cl)=N\OC(=O)c1cccs1 | 12.9 µM | 
O=C(/C=C/Sc1ncn[nH]1)c1ccc(Cl)cc1 |  | 29 (inactive)
Cc1ccnc(N2C(=O)c3cccc4c([N+](=O)[O-])ccc(c34)C2=O)c1 |  | 56.1 (inactive)
O=c1c2sc(-c3ccccc3)cc2nc2n1CCC2 |  | 20.5 (inactive)
COc1cc(N=c2ssnc2Cl)cc(OC)c1 |  | 31.6 (inactive)
CCOC(=O)c1ccc(N=Cc2nc(-c3ccccc3)oc2OC(C)=O)cc1 |  | 41.6 (inactive)
CCCCC1OC23CCCCC2C(C#N)(C(=N)O3)C1(C#N)C#N (stereo not given) |  | 43.5 (inactive)
CCCCCn1c(=O)c(C(=O)Nc2nc3ccccc3[nH]2)c(O)c2ccccc21 |  | 43.6 (inactive)
CC(=O)Oc1ccc(N2C(=O)C3C4C=CC(O4)C3C2=O)cc1 (stereo not given) |  | 48.8 (inactive)
Cc1ccc(N2C(=O)CC(Sc3ncn[nH]3)C2=O)cc1C (stereo not given) |  | 49.3 (inactive)
Cc1ccc(NC(=O)c2cc(N3C(=O)C=CC3=O)ccc2N2CCOCC2)cc1Cl | 4.02 µM | 
Oc1c(C(Nc2nc3ccccc3s2)c2ccco2)ccc2cccnc12 (stereo not given) |  | 43.4 (inactive)
COc1cc(/C=C2\C(=O)ON=C2c2ccc(Cl)cc2)ccc1O |  | 40.8 (inactive)
COc1cc(/C=C2/C(=O)c3cccc([N+](=O)[O-])c3C2=O)c(Br)cc1O |  | 43.9 (inactive)
